pIC50: −log10 of the molar value. Strand notation (5' to 3'): a small letter for the sugar, then the base; units joined by * are phosphorothioate-linked, units joined directly phosphodiester-linked; [ ] holds rarer units or linkages, { } end groups; capitals alone tell only the bases. k = constrained ethyl (cEt); [5mC] = 5-methylcytosine; d = 2'-deoxy (DNA)
Test system: Yap1 mRNA
Test: Dose-dependent inhibition of human Yap1 in A-431 cells (Example 7, 10,000 cells per well, RTS36584)
Type: cell-based
Details: free uptake
Description: Modified oligonucleotides described in the studies above were tested at various doses in A-431 cells. Cultured A-431 cells at a density of 10,000 cells per well were treated using free uptake with modified oligonucleotides diluted to concentrations described in the tables below. After approximately 48 hours, Yap1 mRNA levels were measured as previously described using the Human Yap1 primer-probe set RTS36584. Yap1 mRNA levels were normalized to total RNA content, as measured by RIBOGREEN®. Results are presented in the tables below as percent control of the amount of Yap1 mRNA relative to untreated control cells (% UTC). IC50s were calculated using a linear regression on a log/linear plot of the data in excel.

[1] = 15.6 nM, A-431 cells, 10,000 cells per well, approximately 48 hours
[2] = 62.5 nM, A-431 cells, 10,000 cells per well, approximately 48 hours
[3] = 4000.00 nM, A-431 cells, 10,000 cells per well, approximately 48 hours
[4] = A-431 cells, approximately 48 hours, linear regression on log/linear plot
[5] = Table 60, 15.6 nM, A-431 cells 10,000 cells per well, 48 hours
[6] = Table 60, 62.5 nM, A-431 cells 10,000 cells per well, 48 hours
[7] = Table 60, 4000.00 nM, A-431 cells 10,000 cells per well, 48 hours
[8] = Table 60, A-431 cells 10,000 cells per well
[9] = Table 59, 15.6 nM, A-431 cells 10,000 cells per well, 48 hours
[10] = Table 59, 62.5 nM, A-431 cells 10,000 cells per well, 48 hours
[11] = Table 59, 4000.00 nM, A-431 cells 10,000 cells per well, 48 hours
[12] = Table 59, A-431 cells 10,000 cells per well
[13] = Table 58, 15.6 nM, A-431 cells 10,000 cells per well, 48 hours
[14] = Table 58, 62.5 nM, A-431 cells 10,000 cells per well, 48 hours
[15] = Table 58, 4000.00 nM, A-431 cells 10,000 cells per well, 48 hours
[16] = Table 58, A-431 cells 10,000 cells per well

958565 (kT*kT*kG*dA*dG*d[5mC]*dA*d[5mC]*dT*dG*dA*dA*dA*kG*kT*kA; antisense) [compound 958565]
Yap1 mRNA, % UTC [1]: 83 % UTC
Yap1 mRNA, % UTC [2]: 62 % UTC
Yap1 mRNA, % UTC [3]: 13 % UTC
pIC50 [4]: 7.00

958793 (k[5mC]*k[5mC]*kG*d[5mC]*dA*dT*dT*dG*d[5mC]*d[5mC]*dT*dA*dA*kG*kA*kG; antisense) [compound 958793]
Yap1 mRNA, % UTC [5]: 88 % UTC
Yap1 mRNA, % UTC [6]: 61 % UTC
Yap1 mRNA, % UTC [7]: 25 % UTC
pIC50 [8]: 6.70

958668 (kG*kT*kG*dA*dT*d[5mC]*dT*dG*dT*dG*dA*dG*dA*kG*kG*kT; antisense) [compound 958668]
Yap1 mRNA, % UTC [9]: 81 % UTC
Yap1 mRNA, % UTC [10]: 38 % UTC
Yap1 mRNA, % UTC [11]: 5 % UTC
pIC50 [12]: 7.00

958496 (k[5mC]*k[5mC]*kT*dT*dA*dT*dA*dA*dG*d[5mC]*dT*d[5mC]*d[5mC]*kT*kA*kA; antisense) [compound 958496]
Yap1 mRNA, % UTC (Table 56, 15.6 nM, A-431 cells 10,000 cells per well, 48 hours): 86 % UTC
Yap1 mRNA, % UTC (Table 56, 62.5 nM, A-431 cells 10,000 cells per well, 48 hours): 53 % UTC
Yap1 mRNA, % UTC (Table 56, 4000.00 nM, A-431 cells 10,000 cells per well, 48 hours): 9 % UTC
pIC50 (Table 56, A-431 cells 10,000 cells per well): 7.05

958595 (k[5mC]*k[5mC]*kA*d[5mC]*dA*dT*d[5mC]*dA*dA*dG*dG*d[5mC]*dT*kA*kT*kG; antisense) [compound 958595]
Yap1 mRNA, % UTC [1]: 83 % UTC
Yap1 mRNA, % UTC [2]: 57 % UTC
Yap1 mRNA, % UTC [3]: 16 % UTC
pIC50 [4]: 7.00

958615 (kT*kG*kG*dT*d[5mC]*dT*dT*dG*dT*dT*d[5mC]*dT*dT*kA*kT*kG; antisense) [compound 958615]
Yap1 mRNA, % UTC [1]: 91 % UTC
Yap1 mRNA, % UTC [2]: 60 % UTC
Yap1 mRNA, % UTC [3]: 18 % UTC
pIC50 [4]: 7.00

958472 (kT*k[5mC]*k[5mC]*dT*dT*dA*dG*dA*dT*d[5mC]*d[5mC]*dT*dT*k[5mC]*kA*k[5mC]; antisense) [compound 958472]
Yap1 mRNA, % UTC [13]: 92 % UTC
Yap1 mRNA, % UTC [14]: 63 % UTC
Yap1 mRNA, % UTC [15]: 23 % UTC
pIC50 [16]: 6.70

958742 (kA*kG*k[5mC]*dA*dA*dT*dA*dT*dG*dG*dT*dA*dT*kT*kA*kG; antisense) [compound 958742]
Yap1 mRNA, % UTC [13]: 105 % UTC
Yap1 mRNA, % UTC [14]: 70 % UTC
Yap1 mRNA, % UTC [15]: 20 % UTC
pIC50 [16]: 6.70

958527 (kG*kT*kA*dA*dG*dT*dA*dA*dG*dA*dA*d[5mC]*dA*kA*kT*k[5mC]; antisense) [compound 958527]
Yap1 mRNA, % UTC [13]: 89 % UTC
Yap1 mRNA, % UTC [14]: 74 % UTC
Yap1 mRNA, % UTC [15]: 13 % UTC
pIC50 [16]: 7.00

958644 (kA*kT*kG*dA*dT*d[5mC]*dA*dA*dA*d[5mC]*d[5mC]*dT*dT*kT*kT*k[5mC]; antisense) [compound 958644]
Yap1 mRNA, % UTC (Table 61, 15.6 nM, A-431 cells 10,000 cells per well, 48 hours): 97 % UTC
Yap1 mRNA, % UTC (Table 61, 62.5 nM, A-431 cells 10,000 cells per well, 48 hours): 85 % UTC
Yap1 mRNA, % UTC (Table 61, 4000.00 nM, A-431 cells 10,000 cells per well, 48 hours): 24 % UTC
pIC50 (Table 61, A-431 cells 10,000 cells per well): 6.52

958731 (kG*k[5mC]*kT*d[5mC]*dT*dG*dT*d[5mC]*dA*dG*dT*dT*dA*kT*k[5mC]*k[5mC]; antisense) [compound 958731]
Yap1 mRNA, % UTC (Table 57, 15.6 nM, A-431 cells 10,000 cells per well, 48 hours): 85 % UTC
Yap1 mRNA, % UTC (Table 57, 62.5 nM, A-431 cells 10,000 cells per well, 48 hours): 64 % UTC
Yap1 mRNA, % UTC (Table 57, 4000.00 nM, A-431 cells 10,000 cells per well, 48 hours): 19 % UTC
pIC50 (Table 57, A-431 cells 10,000 cells per well): 7.00

958580 (kA*kT*kA*dA*dT*d[5mC]*dT*dT*dA*dA*dT*d[5mC]*dT*kG*kT*kG; antisense) [compound 958580]
Yap1 mRNA, % UTC [1]: 95 % UTC
Yap1 mRNA, % UTC [2]: 59 % UTC
Yap1 mRNA, % UTC [3]: 9 % UTC
pIC50 [4]: 7.00

958767 (kA*k[5mC]*kG*dA*dA*dT*dA*dA*dG*dG*d[5mC]*dA*dT*kT*kA*kG; antisense) [compound 958767]
Yap1 mRNA, % UTC [9]: 101 % UTC
Yap1 mRNA, % UTC [10]: 57 % UTC
Yap1 mRNA, % UTC [11]: 10 % UTC
pIC50 [12]: 7.00

958734 (kA*k[5mC]*kA*d[5mC]*dA*dT*dA*dG*dA*dG*d[5mC]*dT*dA*kA*kG*kG; antisense) [compound 958734]
Yap1 mRNA, % UTC [1]: 87 % UTC
Yap1 mRNA, % UTC [2]: 65 % UTC
Yap1 mRNA, % UTC [3]: 15 % UTC
pIC50 [4]: 7.00

958568 (kT*kA*kT*dG*dA*dG*dT*dG*dA*dT*d[5mC]*dA*dA*k[5mC]*k[5mC]*kT; antisense) [compound 958568]
Yap1 mRNA, % UTC [5]: 88 % UTC
Yap1 mRNA, % UTC [6]: 65 % UTC
Yap1 mRNA, % UTC [7]: 21 % UTC
pIC50 [8]: 7.00

Source: patent publication US11214803B2, “Modulators of YAP1 expression” (Ionis Pharmaceuticals, Inc., priority 2019, dated 2022)
